From article PMC4104137 (2014)

What was measured:
[1] = test system: G28A (RNA, aptamer) GGACGCGACCGAAAUGGUGAAGGACGGAUCCAGUGCGAAACACGCACUGUUGAGUAGAGUGUGAGCUCCGUAACUGGUCGCGUC; experiment: fluorescence activation titration, Hill fit; conditions: 100 mM K+, 5 mM Mg2+; 30 nM RNA; 10 mM Tris pH 7.5
[2] = test system: dU50 (RNA, aptamer, 2'-deoxyuridine at 37 (U50 in full-length numbering)) GGGGAGAAGGACGGGUCCAGUGCGAAACACGCACUGUUGAGUAGAGUGUGAGCUCCC; experiment: fluorescence activation titration, Hill fit; conditions: 100 mM K+, 5 mM Mg2+; 30 nM RNA; 10 mM Tris pH 7.5

KD [1]: 4400 ± 800 nM
KD [2]: 1100 ± 300 nM
Compound: CC1=N/C(=C\c2cc(F)c(O)c(F)c2)C(=O)N1C
